Earlier results as cited in US20220175695A1, “FORTIFICANT COMPOSITION” (Conopco, Inc., d/b/a UNILEVER, priority 2019, published 2022).

Details: without the composition

time Vitamin A is stable in the presence of water: < 4 h
Substance: Vitamin A
